Reference: patent US20060004019A1, “Steroid sparing agents and methods of using same” (priority 2004, published 2006)

Key:
[1] = system: rat cardiac allografts; experiment: Rat cardiac allograft study, Allograft Study 4 (Table 22); settings: s.c., GG5/3 3 mg/kg, compounds 30 mg/kg;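 note: heterotopic abdominal heart transplants from Lewis × Brown Norway F1 donors into male Lewis rats, graft beating checked daily by flank palpation, rejection defined as complete stop of heartbeat, transplant day 0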
Method: Hearts from Lewis X Brown Norway F1 hybrids were transplanted to the abdominal great vessels of Lewis recipients using standard microvascular techniques. Both rat strains were male inbred rats, weighing 200-300 g. Food and water was available at all times except during surgical and dosing procedures. The day of transplantation was noted as day 0. Twelve hours following the last dose approximately 1 ml of blood was collected into lithium/heparin anti-coagulant tubes. If any graft was rejected prior to the last day of dosing, blood samples were taken 12 hours after dosing on the day that graft rejection was noted. All blood samples were centrifuged at 3000 rpm for 10 minutes and the plasma was harvested, frozen on dry ice and stored frozen at −20 C prior to analysis. Allograft survival in the rats was evaluated by daily palpation of the transplanted heart through the recipient's flank. Rejection was taken as the day of complete cessation of the graft's heart beat. Upon determination of rejection, the abdomen of the recipient was incised and retracted to confirm cessation of the heart beat in the transplanted heart. If cessation of the heart beat was not confirmed the abdomen was surgically closed, and the grafted heart was evaluated daily.
Cardiac allografts were established. Dosing of compounds began on day −2, 2 days prior to transplantation and continued through day +10. […] The vehicle control, 0.9% saline, pH adjusted to a value of 5, to match the dosing solution containing the N-[N-(3-pyridinesulfonyl)-L-3,3-dimethyl-4-thiaprolyl]-0-[1-methylpiperazin-4-ylcarbonyl]-L-tyrosine isopropyl ester, was administered via the same route, i.e. every 12 hours, day −2 through day +10. The antibody, GG5/3 in 0.9% saline, was administered at 3 mg/kg, s.c., on day 0, +3, +7 and +10. All GG5/3 animals received twice daily s.c. injections of 0.9% saline, every 12 hours, from day −2 through day +10. The vehicle control, 0.9% saline, was administered daily, s.c., day 0 through day +10. All dosing solutions were formulated daily at a constant dose volume of 5 ml/kg. The site of injection was rotated at each injection through four possible sites: right and left fore flank, right and left rear flank. A total of 21 allografts, amongst 5 groups, were evaluated in the study. […] Two animals within the 0.9% saline group received saline adjusted to a pH a value of 5. (The pH value of the N-[N-(3-pyridinesulfonyl)-L-3,3-dimethyl-4-thiaprolyl]-0-[1-methylpiperazin-4-ylcarbonyl]-L-tyrosine isopropyl ester dosing solution.) The remaining two animals received saline of pH 7. Group 2 consisted of 6 animals treated with the monoclonal antibody, GG5/3. […] Twelve hours following the last dose approximately 1 ml of blood was collected into lithium/heparin anti-coagulant tubes. If any graft was rejected prior to the last day of dosing, blood samples were taken 12 hours after dosing on the day that graft rejection was noted. All samples were centrifuged at 3000 rpm for 10 minutes and the plasma was harvested, frozen on dry ice and stored frozen at −20 C prior to dispatch for analysis. Allograft survival in the rats was evaluated by daily palpation of the transplanted heart through the recipient's flank. Rejection was taken as the day of complete cessation of graft's heart beat. Upon determination of rejection, the abdomen of the recipient was incised to confirm cessation of the heart beat in the transplanted heart. If cessation of the heart beat was not confirmed the abdomen was surgically closed, and the graft was evaluated daily.

[2] = system: rat cardiac allografts; experiment: Rat cardiac allograft study, Allograft Study 5, dose response (Table 23); assay type: in vivo

Compound: CC(C)OC(=O)[C@H](Cc1ccc(OC(=O)N2CCN(C)CC2)cc1)NC(=O)[C@H]1N(S(=O)(=O)c2cccnc2)CSC1(C)C [listing 1 of 5 here]
- number of surviving grafts ([1]; day 0): 6
- number of surviving grafts ([1]; day 1): 6
- number of surviving grafts ([1]; day 2): 6
- number of surviving grafts ([1]; day 3): 6
- number of surviving grafts ([1]; day 4): 6
- number of surviving grafts ([1]; day 5): 6
- number of surviving grafts ([1]; day 6): 6
- number of surviving grafts ([1]; day 7): 6
- number of surviving grafts ([1]; day 8): 6
- number of surviving grafts ([1]; day 9): 5
- number of surviving grafts ([1]; day 10): 4
- number of surviving grafts ([1]; day 11): 4
- number of surviving grafts ([1]; day 12): 4
- number of surviving grafts ([1]; day 13): 4
- number of surviving grafts ([1]; day 14): 4
- number of surviving grafts ([1]; day 15): 4
- number of surviving grafts ([1]; day 16): 3
- number of surviving grafts ([1]; day 17): 3
- number of surviving grafts ([1]; day 18): 3
- number of surviving grafts ([1]; day 19): 3

Compound: CC(C)OC(=O)[C@H](Cc1ccc(OC(=O)N2CCN(C)CC2)cc1)NC(=O)[C@H]1N([S+]([O-])c2cccnc2)CSC1(C)C (some centres unmarked) [listing 1 of 2 here]
- number of surviving grafts ([2]; day 0, 3 mg/kg s.c.): 6
- number of surviving grafts ([2]; day 1, 3 mg/kg s.c.): 6
- number of surviving grafts ([2]; day 2, 3 mg/kg s.c.): 6
- number of surviving grafts ([2]; day 3, 3 mg/kg s.c.): 6
- number of surviving grafts ([2]; day 4, 3 mg/kg s.c.): 6
- number of surviving grafts ([2]; day 5, 3 mg/kg s.c.): 6
- number of surviving grafts ([2]; day 6, 3 mg/kg s.c.): 6
- number of surviving grafts ([2]; day 7, 3 mg/kg s.c.): 5
- number of surviving grafts ([2]; day 8, 3 mg/kg s.c.): 5
- number of surviving grafts ([2]; day 9, 3 mg/kg s.c.): 3
- number of surviving grafts ([2]; day 10, 3 mg/kg s.c.): 0
- number of surviving grafts ([2]; day 11, 3 mg/kg s.c.): 0
- number of surviving grafts ([2]; day 12, 3 mg/kg s.c.): 0
- number of surviving grafts ([2]; day 13, 3 mg/kg s.c.): 0
- number of surviving grafts ([2]; day 14, 3 mg/kg s.c.): 0
- graft survival, data normalized to group size ([2]; day 15, 3 mg/kg s.c.): 0%
- number of surviving grafts ([2]; day 15, 3 mg/kg s.c.): 0
- graft survival, data normalized to group size ([2]; day 16, 3 mg/kg s.c.): 16%
- number of surviving grafts ([2]; day 16, 3 mg/kg s.c.): 0
- graft survival, data normalized to group size ([2]; day 17, 3 mg/kg s.c.): 17%
- number of surviving grafts ([2]; day 17, 3 mg/kg s.c.): 0
- graft survival, data normalized to group size ([2]; day 18, 3 mg/kg s.c.): 18%
- number of surviving grafts ([2]; day 18, 3 mg/kg s.c.): 0
- graft survival, data normalized to group size ([2]; day 19, 3 mg/kg s.c.): 19%
- number of surviving grafts ([2]; day 19, 3 mg/kg s.c.): 0
- graft survival, data normalized to group size ([2]; day 20, 3 mg/kg s.c.): 20%
- number of surviving grafts ([2]; day 20, 3 mg/kg s.c.): 0
- graft survival, data normalized to group size ([2]; day 21, 3 mg/kg s.c.): 21%
- number of surviving grafts ([2]; day 21, 3 mg/kg s.c.): 0

Compound: CC(C)OC(=O)[C@H](Cc1ccc(OC(=O)N2CCN(C)CC2)cc1)NC(=O)[C@H]1N(S(=O)(=O)c2cccnc2)CSC1(C)C [listing 2 of 5 here]
- number of surviving grafts ([2]; day 0, 30 mg/kg s.c.): 6
- number of surviving grafts ([2]; day 1, 30 mg/kg s.c.): 6
- number of surviving grafts ([2]; day 2, 30 mg/kg s.c.): 6
- number of surviving grafts ([2]; day 3, 30 mg/kg s.c.): 6
- number of surviving grafts ([2]; day 4, 30 mg/kg s.c.): 6
- number of surviving grafts ([2]; day 5, 30 mg/kg s.c.): 6
- number of surviving grafts ([2]; day 6, 30 mg/kg s.c.): 6
- number of surviving grafts ([2]; day 7, 30 mg/kg s.c.): 6
- number of surviving grafts ([2]; day 8, 30 mg/kg s.c.): 6
- number of surviving grafts ([2]; day 9, 30 mg/kg s.c.): 6
- number of surviving grafts ([2]; day 10, 30 mg/kg s.c.): 6
- number of surviving grafts ([2]; day 11, 30 mg/kg s.c.): 6
- number of surviving grafts ([2]; day 12, 30 mg/kg s.c.): 6
- number of surviving grafts ([2]; day 13, 30 mg/kg s.c.): 6
- number of surviving grafts ([2]; day 14, 30 mg/kg s.c.): 6
- graft survival, data normalized to group size ([2]; day 15, 30 mg/kg s.c.): 100%
- number of surviving grafts ([2]; day 15, 30 mg/kg s.c.): 6
- graft survival, data normalized to group size ([2]; day 16, 30 mg/kg s.c.): 100%
- number of surviving grafts ([2]; day 16, 30 mg/kg s.c.): 6
- graft survival, data normalized to group size ([2]; day 17, 30 mg/kg s.c.): 100%
- number of surviving grafts ([2]; day 17, 30 mg/kg s.c.): 6
- graft survival, data normalized to group size ([2]; day 18, 30 mg/kg s.c.): 100%
- number of surviving grafts ([2]; day 18, 30 mg/kg s.c.): 6
- graft survival, data normalized to group size ([2]; day 19, 30 mg/kg s.c.): 100%
- number of surviving grafts ([2]; day 19, 30 mg/kg s.c.): 6
- graft survival, data normalized to group size ([2]; day 20, 30 mg/kg s.c.): 100%
- number of surviving grafts ([2]; day 20, 30 mg/kg s.c.): 6
- graft survival, data normalized to group size ([2]; day 21, 30 mg/kg s.c.): 83%
- number of surviving grafts ([2]; day 21, 30 mg/kg s.c.): 5

Compound: CC(C)OC(=O)[C@H](Cc1ccc(OC(=O)N2CCN(C)CC2)cc1)NC(=O)[C@H]1N(S(=O)(=O)c2cccnc2)CSC1(C)C [listing 3 of 5 here]
- graft survival, data normalized to group size ([2]; day 1, 10 mg/kg s.c.): 100%
- graft survival, data normalized to group size ([2]; day 2, 10 mg/kg s.c.): 100%
- graft survival, data normalized to group size ([2]; day 3, 10 mg/kg s.c.): 100%
- graft survival, data normalized to group size ([2]; day 4, 10 mg/kg s.c.): 100%
- graft survival, data normalized to group size ([2]; day 5, 10 mg/kg s.c.): 100%
- graft survival, data normalized to group size ([2]; day 6, 10 mg/kg s.c.): 100%
- graft survival, data normalized to group size ([2]; day 7, 10 mg/kg s.c.): 100%
- graft survival, data normalized to group size ([2]; day 8, 10 mg/kg s.c.): 100%
- graft survival, data normalized to group size ([2]; day 9, 10 mg/kg s.c.): 80%
- graft survival, data normalized to group size ([2]; day 10, 10 mg/kg s.c.): 80%
- graft survival, data normalized to group size ([2]; day 11, 10 mg/kg s.c.): 80%
- graft survival, data normalized to group size ([2]; day 12, 10 mg/kg s.c.): 80%
- graft survival, data normalized to group size ([2]; day 13, 10 mg/kg s.c.): 40%
- graft survival, data normalized to group size ([2]; day 14, 10 mg/kg s.c.): 40%

Compound: CC(C)OC(=O)[C@H](Cc1ccc(OC(=O)N2CCN(C)CC2)cc1)NC(=O)[C@H]1N([S+]([O-])c2cccnc2)CSC1(C)C (some centres unmarked) [listing 2 of 2 here]
- graft survival, data normalized to group size ([2]; day 1, 3 mg/kg s.c.): 100%
- graft survival, data normalized to group size ([2]; day 2, 3 mg/kg s.c.): 100%
- graft survival, data normalized to group size ([2]; day 3, 3 mg/kg s.c.): 100%
- graft survival, data normalized to group size ([2]; day 4, 3 mg/kg s.c.): 100%
- graft survival, data normalized to group size ([2]; day 5, 3 mg/kg s.c.): 100%
- graft survival, data normalized to group size ([2]; day 6, 3 mg/kg s.c.): 100%
- graft survival, data normalized to group size ([2]; day 7, 3 mg/kg s.c.): 83%
- graft survival, data normalized to group size ([2]; day 8, 3 mg/kg s.c.): 83%
- graft survival, data normalized to group size ([2]; day 9, 3 mg/kg s.c.): 50%
- graft survival, data normalized to group size ([2]; day 10, 3 mg/kg s.c.): 0%
- graft survival, data normalized to group size ([2]; day 11, 3 mg/kg s.c.): 0%
- graft survival, data normalized to group size ([2]; day 12, 3 mg/kg s.c.): 0%
- graft survival, data normalized to group size ([2]; day 13, 3 mg/kg s.c.): 0%
- graft survival, data normalized to group size ([2]; day 14, 3 mg/kg s.c.): 0%

Compound: CC(C)OC(=O)[C@H](Cc1ccc(OC(=O)N2CCN(C)CC2)cc1)NC(=O)[C@H]1N(S(=O)(=O)c2cccnc2)CSC1(C)C [listing 4 of 5 here]
- graft survival, data normalized to group size ([2]; day 1, 30 mg/kg s.c.): 100%
- graft survival, data normalized to group size ([2]; day 2, 30 mg/kg s.c.): 100%
- graft survival, data normalized to group size ([2]; day 3, 30 mg/kg s.c.): 100%
- graft survival, data normalized to group size ([2]; day 4, 30 mg/kg s.c.): 100%
- graft survival, data normalized to group size ([2]; day 5, 30 mg/kg s.c.): 100%
- graft survival, data normalized to group size ([2]; day 6, 30 mg/kg s.c.): 100%
- graft survival, data normalized to group size ([2]; day 7, 30 mg/kg s.c.): 100%
- graft survival, data normalized to group size ([2]; day 8, 30 mg/kg s.c.): 100%
- graft survival, data normalized to group size ([2]; day 9, 30 mg/kg s.c.): 100%
- graft survival, data normalized to group size ([2]; day 10, 30 mg/kg s.c.): 100%
- graft survival, data normalized to group size ([2]; day 11, 30 mg/kg s.c.): 100%
- graft survival, data normalized to group size ([2]; day 12, 30 mg/kg s.c.): 100%
- graft survival, data normalized to group size ([2]; day 13, 30 mg/kg s.c.): 100%
- graft survival, data normalized to group size ([2]; day 14, 30 mg/kg s.c.): 100%

Compound: CC(C)OC(=O)[C@H](Cc1ccc(OC(=O)N2CCN(C)CC2)cc1)NC(=O)[C@H]1N(S(=O)(=O)c2cccnc2)CSC1(C)C [listing 5 of 5 here]
- number of surviving grafts ([2]; day 0, 10 mg/kg s.c.): 5
- number of surviving grafts ([2]; day 1, 10 mg/kg s.c.): 5
- number of surviving grafts ([2]; day 2, 10 mg/kg s.c.): 5
- number of surviving grafts ([2]; day 3, 10 mg/kg s.c.): 5
- number of surviving grafts ([2]; day 4, 10 mg/kg s.c.): 5
- number of surviving grafts ([2]; day 5, 10 mg/kg s.c.): 5
- number of surviving grafts ([2]; day 6, 10 mg/kg s.c.): 5
- number of surviving grafts ([2]; day 7, 10 mg/kg s.c.): 5
- number of surviving grafts ([2]; day 8, 10 mg/kg s.c.): 5
- number of surviving grafts ([2]; day 9, 10 mg/kg s.c.): 4
- number of surviving grafts ([2]; day 10, 10 mg/kg s.c.): 4
- number of surviving grafts ([2]; day 11, 10 mg/kg s.c.): 4
- number of surviving grafts ([2]; day 12, 10 mg/kg s.c.): 4
- number of surviving grafts ([2]; day 13, 10 mg/kg s.c.): 2
- number of surviving grafts ([2]; day 14, 10 mg/kg s.c.): 2
- graft survival, data normalized to group size ([2]; day 15, 10 mg/kg s.c.): 40%
- number of surviving grafts ([2]; day 15, 10 mg/kg s.c.): 2
- graft survival, data normalized to group size ([2]; day 16, 10 mg/kg s.c.): 20%
- number of surviving grafts ([2]; day 16, 10 mg/kg s.c.): 1
- graft survival, data normalized to group size ([2]; day 17, 10 mg/kg s.c.): 20%
- number of surviving grafts ([2]; day 17, 10 mg/kg s.c.): 1
- graft survival, data normalized to group size ([2]; day 18, 10 mg/kg s.c.): 20%
- number of surviving grafts ([2]; day 18, 10 mg/kg s.c.): 1
- graft survival, data normalized to group size ([2]; day 19, 10 mg/kg s.c.): 20%
- number of surviving grafts ([2]; day 19, 10 mg/kg s.c.): 1
- graft survival, data normalized to group size ([2]; day 20, 10 mg/kg s.c.): 20%
- number of surviving grafts ([2]; day 20, 10 mg/kg s.c.): 1
- graft survival, data normalized to group size ([2]; day 21, 10 mg/kg s.c.): 20%
- number of surviving grafts ([2]; day 21, 10 mg/kg s.c.): 1
